Reference: patent US20050020588A1, “Cysteine protease inhibitors” (priority 1999, published 2005)
Where two headings read alike, the source gives them in different places.

Assays:
Rat Cathepsin S = Rat Cathepsin S (Rattus norvegicus, UniProt Q02765); assay: Ki competitive inhibition, rat cathepsin S; assay type: biochemical
Method: (§1) Cathepsin S (Mammalian, murine and rat)
(§2) Assays were performed in 100 mM sodium phosphate, 100 mM NaCl, pH 6.5 (buffer) in white 384 well plates (Coming Costar). Eight inhibitors were assayed per plate.
(§3) Inhibitor dilutions were performed on a 96 well V-bottomed polypropylene plate (Corning Costar). 100 μl of buffer was placed in wells 2-5 and 7-12 of rows A, B, C and D. Sufficient of each inhibitor at 10 mM in DMSO was placed into wells A1-D1 and A6-D6 to give the desired final concentration when the volume in the well was made up to 200 μl with buffer. Column 1 was made up to 200 μl with buffer, mixed by aspirating and dispensing 100 μl in the well, and 100 μl transferred to column 2. The pipette tips were changed and the mixing and transferral repeated to column 5. This process was repeated for columns 6-10.
(§4) Substrate dilutions were performed on a 96 deep well polypropylene plate (Beckman Coulter). 280 μl of buffer was placed in wells B-H of columns 1 and 2.70 μl of 10 mM boc-Val-Leu-Lys-AMC was placed in A1 and A2. 2×250 μl of buffer was added to wells A1 and A2, mixed by aspirating and dispensing 280 μl in the well, and 280 μl transferred to row B. The pipette tips were changed and the process repeated down the plate to row H.
(§5) Column 1 of the substrate dilution plate was distributed at 10 μl per well into alternate rows beginning at row A. Column 2 was distributed to alternate rows beginning at row B. Row A of the inhibitor dilution plate was distributed at 10 μl per well to alternate rows and columns starting at A1. Row B was distributed to alternate rows and columns starting at A2. Row C was distributed to alternate rows and columns starting at B1 and row D was distributed to alternate rows and columns starting at B2. The assay was started by the addition of 30 μl per well of 20 nM cathepsin S in buffer containing 10 mM 2-mercaptoethanol.
(§6) Data were saved as text files and imported into Excel. The initial rates were determined by linear regression and then fitted to the competitive inhibition equation using SigmaPlot.

Murine Cathepsin S = Murine Cathepsin S (Mus musculus, UniProt O70370); assay: Ki competitive inhibition, murine cathepsin S; assay type: biochemical
Method: as §1, §2, §3, §4, §5, §6

Mammalian Cathepsin L = Mammalian Cathepsin L (Homo sapiens, UniProt P07711); assay: Ki competitive inhibition, cathepsin L; assay type: biochemical
Method: as §6
(§7) Assays were performed essentially as above. For cathepsin L, the buffer used was 100 mM sodium acetate, 1 mM EDTA, pH 5.5 and the substrate was D-Val-Leu-Lys-AMC with a highest concentration of 100 μM. For cathepsin K, the buffer used was 100 mM MES/Tris, 1 mM EDTA, pH 7.0 and the substrate was D-Ala-Leu-Lys-AMC with a highest concentration of 250 μM.

Mammalian Cathepsin S = Mammalian Cathepsin S (Homo sapiens, UniProt P25774); assay: Ki competitive inhibition, mammalian cathepsin S; assay type: biochemical
Method: as §1, §2, §3, §4, §5, §6

Mammalian Cathepsin K = molecular target: T1, Mammalian Cathepsin K (Homo sapiens, UniProt P43235); assay: Ki competitive inhibition, cathepsin K; assay type: biochemical
T1 sequence (P43235 115-329): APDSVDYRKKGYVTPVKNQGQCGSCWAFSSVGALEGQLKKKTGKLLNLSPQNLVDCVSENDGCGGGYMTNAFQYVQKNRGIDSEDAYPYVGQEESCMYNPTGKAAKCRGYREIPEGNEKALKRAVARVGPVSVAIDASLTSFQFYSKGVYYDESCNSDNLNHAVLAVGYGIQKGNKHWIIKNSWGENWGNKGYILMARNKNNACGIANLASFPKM
Method: as §7
Convenient assays for cathepsin K arere carried out using human recombinant enzyme. Standard assay conditions for the determination of kinetic constants used a fluorogenic peptide substrate, typically H-D-Ala-Leu-Lys-AMC, and were determined in either 100 mM Mes/Tris, pH 7.0 containing 1 mM EDTA and 10 mM 2-mercaptoethanol or 100 mM Na acetate, pH 5.5 containing 5 mM EDTA and 20 mM cysteine. The enzyme concentration used was 5 nM. The stock substrate solution was prepared at 10 mM in DMSO. Screens were carried out at a fixed substrate concentration of 60 μM and detailed kinetic studies with doubling dilutions of substrate from 250 μM. The total DMSO concentration in the assay was kept below 3%. All assays were conducted at ambient temperature. Product fluorescence (excitation at 390 nm, emission at 460 nm) was monitored with a Labsystems Fluoroskan Ascent fluorescent plate reader. Product progress curves were generated over 15 minutes following generation of AMC product.
Potential inhibitors are screened using the above assay with variable concentrations of test compound. Reactions were initiated by addition of enzyme to buffered solutions of substrate and inhibitor. Ki values were calculated according to equation 1 [formula] where ν0 is the velocity of the reaction, V is the maximal velocity, S is the concentration of substrate with Michaelis constant of KM, and I is the concentration of inhibitor. Determination of Falcipain 2 Proteolytic Catalytic Activity

[1] = Oral bioavailability in mice; details: mouse, in vivo, dosed i.v. and orally at 10 mg/kg to mice, read-out: oral bioavailability % (F)
[2] = Table 1, second line of each CAP-P2 block, read-out: Ki competitive inhibition measurements vs Mammalian Cathepsin L
[3] = Table 1, first line of each CAP-P2 block, read-out: Ki competitive inhibition measurements vs Mammalian Cathepsin S
[4] = Table 2, Human, read-out: Ki (μM) Human, Mammalian Cathepsin S
[5] = Table 2, Rat, read-out: Ki (μM) Rat, Rat Cathepsin S
[6] = Table 2, Mouse, read-out: Ki (μM) Mouse, Murine Cathepsin S
[7] = Table 1, third line of each CAP-P2 block, read-out: Ki competitive inhibition measurements vs Mammalian Cathepsin K

Rat Cathepsin S, sequence (Q02765 113-330): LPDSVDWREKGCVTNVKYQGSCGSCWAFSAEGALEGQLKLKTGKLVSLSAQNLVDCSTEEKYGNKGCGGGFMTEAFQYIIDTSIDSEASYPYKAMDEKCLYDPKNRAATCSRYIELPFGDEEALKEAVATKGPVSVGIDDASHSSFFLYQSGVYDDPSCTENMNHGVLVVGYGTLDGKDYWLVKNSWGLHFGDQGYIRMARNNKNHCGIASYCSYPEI
Mammalian Cathepsin L, sequence (P07711 114-333): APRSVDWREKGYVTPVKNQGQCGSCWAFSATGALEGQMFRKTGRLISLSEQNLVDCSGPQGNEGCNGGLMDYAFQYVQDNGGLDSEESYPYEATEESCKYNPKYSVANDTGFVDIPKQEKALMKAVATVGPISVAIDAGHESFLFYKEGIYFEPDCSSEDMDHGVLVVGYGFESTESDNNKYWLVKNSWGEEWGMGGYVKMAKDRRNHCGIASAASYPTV
Mammalian Cathepsin S, sequence (P25774 115-331): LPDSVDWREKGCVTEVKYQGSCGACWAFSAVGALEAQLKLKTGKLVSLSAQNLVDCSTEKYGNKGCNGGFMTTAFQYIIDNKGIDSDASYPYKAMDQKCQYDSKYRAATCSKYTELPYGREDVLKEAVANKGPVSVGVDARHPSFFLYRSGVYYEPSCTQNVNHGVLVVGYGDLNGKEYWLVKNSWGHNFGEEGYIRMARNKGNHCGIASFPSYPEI

Structure (SMILES) | Ki (Mammalian Cathepsin L; [2]) | Ki (Mammalian Cathepsin S; [3]) | Ki (Mammalian Cathepsin K; [7]) | also measured
CC[C@@H]1OCC(=O)[C@H]1NC(=O)[C@H](CC(C)(C)C(C)C)NC(=O)c1ccoc1 [CAP8-Hybrid3/drawing 68, Furan-3-carboxylic acid[3,3,4-trimethyl-1S-(2S-ethyl-4-oxo-tetrahydrofuran-3-ylcarbamoyl)pentyl]amide] | > 100000 nM | 0.015 µM | – | Ki (Rat Cathepsin S; read-out: Ki rat cath S): 0.271 µM; Ki (Murine Cathepsin S; read-out: Ki murine cath S): 0.149 µM; Ki (Mammalian Cathepsin L; read-out: Ki cathepsin L): > 100000 nM; Ki (Mammalian Cathepsin S; [4]): 0.015 µM; Ki (Mammalian Cathepsin S; read-out: Ki mammalian cath S): 0.015 µM; Ki (Mammalian Cathepsin K; read-out: Ki cathepsin K): 5500 nM
C[C@@H]1OCC(=O)[C@H]1NC(=O)[C@H](CC(C)(C)C)NC(=O)c1ccoc1 [CAP8-L-tBu-Ala/drawing 71, Furan-3-carboxylic acid[3,3-dimethyl-1S-(2S-methyl-4-oxo-tetrahydrofuran-3S-ylcarbamoyl)butyl]amide] | > 100000 nM | 0.1 µM | 7300 nM | Ki (Rat Cathepsin S; [5]): 0.211 µM; Ki (Murine Cathepsin S; [6]): 0.1 µM; Ki (Mammalian Cathepsin S; [4]): 0.13 µM; bioavailability [1]: 58%
CC(C)(C)CC(NC(=O)c1ccoc1)C(=O)NC1COCC1=O [CAP8-L-tBu-Ala/drawing 72] | 36400 nM | 0.21 µM | 850 nM | –
CC(C)C[C@H](NC(=O)N1CCOCC1)C(=O)N[C@H]1C(=O)CO[C@H]1C [CAP9-L-Leu/drawing 70] | 7900 nM | 0.8 µM | 4800 nM | –
CC(C)CC[C@H](NC(=O)N1CCOCC1)C(=O)N[C@@H]1C(=O)CO[C@@H]1C [CAP9-L-hLeu/drawing 69] | 48700 nM | 0.78 µM | 34300 nM | –
CC(C)CC[C@H](NC(=O)N1CCOCC1)C(=O)N[C@H]1C(=O)CO[C@H]1C [CAP9-L-hLeu/drawing 70] | > 100000 nM | 0.7 µM | > 100000 nM | –
CC(C)CC[C@H](NC(=O)N1CCOCC1)C(=O)N[C@@H]1C(=O)CO[C@H]1C [CAP9-L-hLeu/drawing 71] | > 100000 nM | 0.52 µM | > 100000 nM | –
C[C@H]1OCC(=O)[C@H]1NC(=O)[C@H](CC(C)(C)C)NC(=O)N1CCOCC1 [CAP9-L-tBu-Ala/drawing 69] | 30400 nM | 0.58 µM | 4200 nM | –
CCn1nc(C)cc1C(=O)N[C@@H](CC(C)C)C(=O)N[C@@H]1C(=O)CO[C@@H]1C [CAP10-L-Leu/drawing 69] | 710 nM | 1.3 µM | 3000 nM | –
CCn1nc(C)cc1C(=O)N[C@@H](Cc1ccc(O)cc1)C(=O)N[C@H]1C(=O)CO[C@H]1C [CAP10-L-Tyr/drawing 70] | 460 nM | 0.34 µM | > 100000 nM | –
CCn1nc(C)cc1C(=O)N[C@@H](Cc1ccc(O)cc1)C(=O)N[C@@H]1C(=O)CO[C@H]1C [CAP10-L-Tyr/drawing 71] | 450 nM | 4.1 µM | > 100000 nM | –
CCn1nc(C)cc1C(=O)NC(Cc1ccc(O)cc1)C(=O)NC1COCC1=O [CAP10-L-Tyr/drawing 72] | 100 nM | 3.7 µM | > 100000 nM | –
CCn1nc(C)cc1C(=O)N[C@@H](Cc1ccc(O)cc1)C(=O)N[C@@H]1COCC1=O [CAP10-L-Tyr/drawing 73] | 100 nM | 3.7 µM | > 100000 nM | –
CC1OCC(=O)C1NC(=O)C(CC(C)(C)C)NC(=O)c1ccsc1 [CAP11-L-tBu-Ala/drawing 71] | 55200 nM | 0.095 µM | 1550 nM | Ki (Rat Cathepsin S; [5]): 0.084 µM; Ki (Murine Cathepsin S; [6]): 0.048 µM; Ki (Mammalian Cathepsin S; [4]): 0.095 µM
CC[C@@H]1OCC(=O)[C@H]1NC(=O)[C@H](CC(C)(C)C)NC(=O)c1ccoc1 [drawing 79/drawing 78 X = O] | – | – | – | Ki (Rat Cathepsin S; [5]): 0.058 µM; Ki (Murine Cathepsin S; [6]): 0.039 µM; Ki (Mammalian Cathepsin S; [4]): 0.053 µM
